Patent US7754720B2, “Pyridazine compound and use thereof” (priority 2006, dated 2010)
Values after ≈ are worked out from the molar mass of the structure shown. Like-named read-outs stand apart in the source and are kept apart here.

Assays:
[1] = tested on: HCV genotype 1b (Con-1/lucneo) replicon; assay: microbe, parasite or virus in culture; assay type: cell-based; conditions: Hepatitis C virus
Procedure: (§1) HCV genotype 1b (Con-1/lucneo) and 1a (H77/neo) replicon cells were incubated with serial dilutions of compound (1) 2′C-methyl adenosine (2′CMeA) or IFNα for 3 days in the absence or presence of 40 mg/mL human serum albumin (HSA).

[2] = tested on: HCV genotype 1a (H77/neo) replicon; assay: HCV genotype 1a (H77/neo) replicon, quantitative real-time PCR assay; assay type: cell-based; conditions: Hepatitis C virus, 72 h, 3 days
Procedure: as §1

[3] = tested on: HCV 2a subgenomic replicon; assay: HCV genotype 2a subgenomic replicon in Huh-7 cells, NS3 protease activity by time-resolved fluorescence; assay type: cell-based, hepatitis C virus; conditions: compared with genotypes 1a and 1b
Procedure: (§2) The antiviral activity of compound (1) against HCV genotype 2a was tested in cells chronically infected with the genotype 2a virus as well as in cells replicating a subgenomic 2a replicon. Huh-7 cells containing chronically replicating HCV genotype 2a (J6/JFH-Rluc) virus or subgenomic replicons were cultured with compound (1) or 2′CMeA for 3 days in the absence of human serum albumin. After cultivation, the amount of luciferase in 2a-virus containing cells and HCV NS3 protease activity in the 2a replicon-containing cells was determined using Promega's luciferase assay and a novel time-resolved fluorescence assay, respectively.

[4] = tested on: HCV genotype 2a (J6/JFH-Rluc) virus; assay: Huh-7 cells chronically infected with HCV genotype 2a reporter virus, luciferase assay; assay type: cell-based; conditions: Hepatitis C virus, Huh-7, 72 h, read-out: EC50, HCV-2a chronically infected cell culture model
Procedure: as §2

[5] = Cytotoxicity, CellTiter-Glo Luminescence Cell Viability assay, Huh-7 lucneo; conditions: human, Huh-7 lucneo cells (HCV replicon-containing)
Procedure: (§3) Compound (1) was evaluated for its cytotoxicity in a variety of cell types including HCV replicon-containing cell lines (Huh-7, SL3 and MH4) and non-replicon-containing cell lines (HepG2, MT4), using a CellTiter-Glo Luminescence Cell Viability assay (Promega).

[6] = Cytotoxicity, CellTiter-Glo Luminescence Cell Viability assay, SL3; conditions: human, SL3 cells (HCV replicon-containing)
Procedure: as §3

[7] = Cytotoxicity, CellTiter-Glo Luminescence Cell Viability assay, MH4; conditions: mouse, MH4 cells (HCV replicon-containing)
Procedure: as §3

[8] = in vitro; conditions: human
Procedure: as §3

[9] = in vitro; conditions: human; remark: listed apart in the source
Procedure: as §3

[10] = tested on: HCV replicon cells; assay: In vitro combination study with IFN-α in replicon cells (MacSynergy); assay type: cell-based, hepatitis C virus; conditions: MacSynergy analysis
Procedure: Pegylated interteron-α (PEG-IFN-α), in combination with ribavirin, represents the current standard of care for HCV-infected patients. In vitro combination studies of compound (1) and IFN-α were performed in replicon cells. Data was analyzed using the MacSynergy template developed by Prichard and Shipman.

[11] = tested on: HCV replicon; assay: Anti-HCV replicon activity compared with prior art compound of formula (4); assay type: cell-based, hepatitis C virus
Source text: The anti-HCV replicon activity of compound (1) was compared to that of a prior art (WO 05/063744) compound, the compound of formula (4)

[12] = Intrinsic and pH solubility profile; assay type: physicochemical
[13] = physchem; assay type: physicochemical; conditions: pH 6.4, fassif
[14] = pKa; assay type: physicochemical; conditions: product of example 1b
[15] = log P; assay type: physicochemical; conditions: product of example 1b
[16] = Phase-1 first-in-human trial, pharmacokinetics; conditions: in vivo
Source text: (§4) A randomized, double-blind, placebo controlled trial was designed to evaluate the safety/tolerability, phamacokinetics and antiviral activity of single (in Part A) and multiple (in Part B) doses of Compound (1) (oleic acid solution, above) in subjects chronically infected with HCV genotype 1 (GT-1) without decompensated cirrhosis.
(§5) In completed Part A, five successive cohorts of 6 subjects were randomized (5:1) to receive single ascending doses of Compound 1 (40, 120, 240, 240-with food, or 480 mg) or placebo. In ongoing Part B, four successive cohorts of 12 subjects are randomized (10:2) to receive multiple ascending doses of Compound 1 (40 mg BID, 120 mg BID, 240 mg QD, 240 mg BID) or placebo, over 8 days.

[17] = in vivo
Source text: as §4, §5

Q: With `Fc1ccccc1-c1nc2ccn(Cc3ccc(-c4ccc(C(F)(F)F)cc4C(F)(F)F)nn3)cc-2n1` [Compound (1), 5-({6-[2,4-bis(trifluoromethyl)phenyl]pyridazin-3-yl}methyl)-2-(2-fluorophenyl)-5H-imidazo[4,5-c]pyridine] as the compound, how does the EC50 ([1]; 72 h, read-out: EC50 HCV 1b-lucneo 40 mg/mL HSA, 3 days, presence of 40 mg/mL human serum albumin) read?
A: 11 nM

Q: What about the EC50 ([1]; 72 h, 3 days, absence of human serum albumin, read-out: EC50 HCV 1b-lucneo (subgenomic replicon)) of the same compound?
A: 0.6 nM

Q: What about the EC50 ([1]; Huh-7, read-out: EC50, Huh-7 cells replicating an HCV-1b subgenomic replicon) of the same compound?
A: 0.6 nM

Q: What about the EC50 ([1]; read-out: EC50 in HCV-1b and HCV-1a replicons) of the same compound?
A: 0.62 to 3.6 nM

Q: What about the EC50 [2] of the same compound?
A: 3.6 nM

Q: And the “activity against genotype 2a” value [3]?
A: substantially less active

Q: And the EC50 [4]?
A: 2900 nM

Q: What about the CC50 [5] of the same compound?
A: > 50000 nM

Q: What about the CC50 [6] of the same compound?
A: > 50000 nM

Q: What about the CC50 [7] of the same compound?
A: > 50000 nM

Q: What about the CC50 [8] of the same compound?
A: > 50000 nM

Q: What about the CC50 [9] of the same compound?
A: > 50000 nM

Q: What about the “interaction with IFN-α in combination” value [10] of the same compound?
A: additive interaction

Q: What about the “potency relative to the compound of formula (4)” value [11] of the same compound?
A: about 330 times

Q: And the “pH solubility profile at pH 7.3” value ([12]; geometric mean (3 lots), pH 7.3)?
A: 0.7 micrograms/ml

Q: And the solubility ([12]; product of example 1b)?
A: 0.7 µg/mL (≈ 1.35 µM)

Q: What about the solubility [13] of the same compound?
A: 19.1 µg/mL (≈ 36.9 µM)

Q: And the pKa [14]?
A: 5.8

Q: What about the logP [15] of the same compound?
A: 2.8

Q: What about the half-life [16] of the same compound?
A: 10 to 15 h

Q: And the “increase of systemic exposure with a high fat meal” value [16]?
A: approximately 2 fold

Q: What about the “Grade 3 or 4 treatment emergent laboratory abnormalities” value ([17]; human) of the same compound?
A: no Grade 3 or 4 treatment emergent laboratory abnormalities

Q: And the “most common adverse event” value [17]?
A: headache

Q: And the “serious or treatment-limiting adverse events” value [17]?
A: no serious or treatment-limiting adverse events

Q: What about the “severity of adverse events” value [17] of the same compound?
A: All AEs were mild in severity, with the exception of one moderate headache

Q: And the “tolerability of single doses” value [17]?
A: well tolerated
